US20250099491A1, “PREVENTION OR TREATMENT OF CARDIOVASCULAR DISEASES WITH HIGH PENETRATION PRODRUGS OF ASPIRIN AND OTHER NSAIDS” (Techfields Inc., priority 2022, published 2025)
Read-outs that look alike come from different tables or passages of the source.

What was measured:
[1] = rabbit
[2] = system: rats with acute ischemia induced by Middle Cerebral Artery Occlusion (MCAO); experiment: Example 15: acute ischemia induced by MCAO in rats; assay type: in vivo, rat; conditions: for infarct volume: Day 14 after MCAO, TTC staining, mean±SEM; for reduction of infarct volumes: comparators: oral 60 mg/kg bid, Edaravone 3 mg/kg i.v. q.d.
[3] = system: myocardial infarction in minipigs; experiment: Example 20: myocardial infarction efficacy study in minipigs (circumflex coronary artery thrombosis); assay type: in vivo, minipig; conditions: aspirin 20 mg/kg/time oral, twice a day
Method: Total 24 male minipigs were used for this study. […] The minipigs were already quarantined and acclimated. Before animal being transferred from holding colony, a physical examination was performed and the acceptability of the animals for the study was evaluated by veterinary. […] [table] […] Under anesthesia, thoracotomy was carried out and the circumflex coronary artery of the heart was exposed. The circumflex coronary artery thrombosis was induced by photochemical reaction. […] Photoirradiation was continued for a 30 min. […] After cutting the femoral artery, thoracotomy was carried out and the heart was removed. […] TTC regent for 5 min. After staining with TTC reagent, the photograph of the heart 5 blocks was taken. All blocks were immersed in 10% formalin neutral buffer solution. The 2nd block appeared large necrotic area was cut sections (thickness: 7-8 μm). Slice was stained with H & E reagent. […] The infarct lesions were defined as a necrotic portion of TTC stained blocks. […] The histopathological alteration (necrosis, inflammation, granulation, etc.) of myocardial infarction was examined using H & E stained slides.

[4] = system: rats with acute ischemia induced by Middle Cerebral Artery Occlusion (MCAO); experiment: Example 14: acute ischemia induced by middle cerebral artery occlusion (MCAO) in rats; assay type: in vivo, rat; conditions: for infarct volume: Day 14 after MCAO, TTC staining, mean±SEM; for reduction of infarct volumes: comparators: oral 60 mg/kg bid, Edaravone 3 mg/kg i.v. q.d.
[5] = system: middle cerebral artery (MCA) thrombosis model of monkeys; experiment: Example 19: middle cerebral artery (MCA) thrombosis model of monkeys; conditions: aspirin 20 mg/kg/time oral, twice a day
Method: Aspirin was administered orally by gavage using a nasal catheter with a disposal syringe. The catheter was inserted into the stomach through the mouth. The treatment was once per day of MCA thrombosis (day 0), twice per day for 27 days.
The monkeys that had been fastened for at least 12 h were anesthetized with intramuscular administration of ketamine hydrochloride (20 mg/kg), and placed on an operation-bed. Anesthesia was continued with 1.0% isoflurane in O2 gas until 30 min. The inhalation anesthesia was performed with anesthesia machines (SN23402, Hallowell engineering and manufacturing corporation, USA) and respirators (SN23402, Hallowell engineering and manufacturing corporation, USA), and placed on an operation-bed. During anesthesia, body temperature of the animals (rectal temperature) was controlled between 37.0±0.5° C. by heating mattresses (XMTA-7000, Delixi Electric., Ltd.).
Under anesthesia, the left eye was enucleated using a bipolar coagulation device (Valleylab Force 1C, USA). A craniotomy was then performed supralaterally to the left side of the optic nerve. The next day animals were anesthetized with ketamine hydrochloride (20 mg/kg) and the dura and subarachnoid membrane were opened. MCA thrombosis was induced by photochemical reaction. The proximal part of the main MCA trunk. was irradiated with green light wave length 532 nm achieved by use of a xenon lamp (GL532T3-100FC, Shanghai Laser& Optics Century Col., Ltd.). The irradiation was directed by a 3-mm diameteroptic fiber mounted on a micromanipulator. Irradiation was started and rose bengal 20 mg/kg was injected intravenously. Photoirradiation was continued for a 30 min. The dura was then covered with a moist gelatin sponge.
Neurological deficits (see Table 3) were assessed 1, 3, 5, 7, 14 and 28 days after the onset of MCA thrombosis (day 0) in a blind manner. The neurological deficits was scored on consciousness, sensory system, motor system and skeletal muscle coordination, and the total neurological deficit score was calculated by summing the scores of consciousness, sensory system, motor system and skeletal muscle coordination.
The survival monkeys were deeply anesthetized with pentobarbital sodium (35 mg/kg, i.v.) 28 days after the onset of MCA thrombosis. After cutting the atriums of heart, 200 mL of heparinized physiological saline (10 U/mL) was allowed to perfuse the brain via the common carotid arteries, and followed by perfusion of 200 mL of 10% formalin neutral buffer solution. The whole brain was removed, and then was put in pathology sample preservation packs containing 10% formalin neutral buffer solution. For each brain sample, the coronal sections (thickness: 7-8 μm) per site were prepared at 10 sites at 4-mm intervals. Slices per site were each stained with H & E reagent.
Measurement of cerebral infarct lesions was carried out in a blind manner. The infarct lesions in the ischemic side are defined as a necrotic portion compared with that in the contralateral side. The infarcted area of left cerebral hemisphere (A) in the cross-sections was traced and measured using a computerized image analysis system (image J).
When the infarct size of 2 serial section was made into D and D′, the infarcted volume using the thickness (4 mm) of a section is measured in the following formula:
Total infarcted volume is calculated by summing the infarcted volume of the 10 serial sections.

[6] = system: rats with acute ischemia induced by Middle Cerebral Artery Occlusion (MCAO); experiment: Example 16: acute ischemia induced by MCAO in rats; assay type: in vivo, rat; conditions: for infarct volume: Day 14 after MCAO, TTC staining, mean±SEM; for reduction of infarct volumes: comparators: oral 60 mg/kg bid, Edaravone 3 mg/kg i.v. q.d.; for mortalities: deaths of animals in group
[7] = system: rats with acute ischemia induced by Middle Cerebral Artery Occlusion (MCAO); experiment: Example 18: acute ischemia induced by MCAO in rats; assay type: in vivo, rat; conditions: for infarct volume: Day 14 after MCAO, TTC staining, mean±SEM; for reduction of infarct volumes: comparators: oral 60 mg/kg bid, Edaravone 3 mg/kg i.v. q.d.
[8] = system: rats with acute ischemia induced by Middle Cerebral Artery Occlusion (MCAO); experiment: Example 17: acute ischemia induced by MCAO in rats; assay type: in vivo, rat; conditions: for infarct volume: Day 14 after MCAO, TTC staining, mean±SEM; for reduction of infarct volumes: comparators: oral 60 mg/kg bid, Edaravone 3 mg/kg i.v. q.d.
[9] = high dose 60 mg/kg topical bid 14 days
[10] = high dose group compared to vehicle group
[11] = high dose groups vs vehicle group
[12] = low dose 15 mg/kg topical bid 14 days
[13] = low, middle and high dose groups, Day 5-14, vs vehicle group by t-test
[14] = middle dose 30 mg/kg topical bid 14 days

| Molecule | The cumulative amount of test compounds ([1]; 1 h) [mg] | The cumulative amount of test compounds ([1]; 2 h) [mg] | The cumulative amount of test compounds ([1]; 4 h) [mg] | The cumulative amount of test compounds ([1]; 8 h) [mg] | further results |
| --- | --- | --- | --- | --- | --- |
| Cl.O=C(Oc1ccccc1C(=O)OCC1CCCN1)c1ccccc1O (stereo not shown) [Compound-17, (pyrrolidin-2-yl)methyl 2-(2-hydroxybenzoyl)oxybenzoate hydrochloride] | 0.32 | 0.68 | 1.39 | 2.97 | – |
| CCN(CC)CCOC(=O)c1ccccc1OC(=O)c1ccccc1O.Cl [Compound-16, 2-(diethylamino)ethyl 2-(2-hydroxybenzoyl)oxybenzoate hydrochloride] | 0.37 | 0.87 | 1.71 | 3.56 | – |
| CCN(CC)CCOC(=O)c1ccccc1O.Cl [Compound-4, 2-(diethylamino)ethyl hydroxybenzoate hydrochloride] | – | – | – | – | infarct volume [2, 9]: 34.56%±2.563; neuroprotective effect on brain ischemic injury [2, 10]: good neuroprotective effect; neurological deficit scores [2, 11]: show differences significantly; infarct volume [2, 12]: 37.01%±2.053; body weight [2, 13]: increased; infarct volume [2, 14]: 35.77%±1.875 |
| CC(=O)Oc1ccccc1C(=O)O [Compound-3, Aspirin] | 0.000 | 0.001 | 0.002 | 0.003 | degeneration of myocardium and myocardial necrosis (histopathology) [3]: moderate; infarct volume (myocardial) ([3]; 28 days after MCA thrombosis): 431 mm^3; infarct volume ([4]; 60 mg/kg oral bid 14 days): 36.27%±2.123; reduction of infarct volumes [4]: little reduction; infarct volume ([5]; Day 28 after MCA thrombosis): 1901 mm^3; Mortality rate [5]: 1/5; hemorrhage in the penumbra area [5]: showed hemorrhage; liquefaction in the infarct area (histopathology) [5]: moderate; neurological deficits ([5]; until 28 days after MCA thrombosis): tended to show slight recovery; infarct volume ([6]; 60 mg/kg oral bid 14 days): 37.99%±1.985; reduction of infarct volumes [6]: little reduction |
| CC(=O)Oc1ccccc1C(=O)Oc1ccccc1C(=O)OCC1CCCN1.Cl (stereo not shown) [Compound-14, (pyrrolidin-2-yl)methyl 2-(2-acetoxybenzoyl)oxybenzoate hydrochloride] | 0.37 | 0.84 | 1.82 | 3.69 | infarct volume [7, 9]: 32.98%±2.546; mortalities ([7]; high dose 60 mg/kg topical bid, deaths of animals in group): 0 of 25; neuroprotective effect on brain ischemic injury [7, 10]: good neuroprotective effect; neurological deficit scores [7, 11]: show differences significantly; infarct volume [7, 12]: 36.87%±2.265; body weight [7, 13]: increased; infarct volume [7, 14]: 35.39%±2.479 |
| CCN(CC)CCOC(=O)c1ccccc1OC(=O)c1ccccc1OC(C)=O.Cl [Compound-13, 2-(diethylamino)ethyl 2-(2-acetoxybenzoyl)oxybenzoate hydrochloride] | 0.46 | 0.97 | 1.99 | 3.89 | – |
| CCN(CC)CCOC(=O)c1cc(-c2ccc(F)cc2F)ccc1OC(C)=O.Cl [Compound-7, 2-(diethylamino)ethyl 2′,4′-difluoro-4-acetoxy-[1,1′-biphenyl]-3-carboxylate hydrochloride] | 0.53 | 1.07 | 2.16 | 4.33 | – |
| O=C(Oc1ccccc1C(=O)O)c1ccccc1O [Compound-18, 2-(2-hydroxybenzoyl)oxybenzoic acid, reference compound] | 0.000 | 0.000 | 0.001 | 0.001 | – |
| CC(=O)Oc1ccc(-c2ccc(F)cc2F)cc1C(=O)O [Compound-9, 2′,4′-difluoro-4-acetoxy-[1,1′-biphenyl]-3-carboxylic acid, reference compound] | 0.000 | 0.000 | 0.001 | 0.002 | infarct volume ([8]; 60 mg/kg oral bid 14 days): 38.95%±2.176; reduction of infarct volumes [8]: little reduction |
| O=C(O)c1ccccc1O [Compound-6, Salicylic acid, reference compound] | 0.000 | 0.001 | 0.002 | 0.002 | infarct volume ([2]; 60 mg/kg oral bid 14 days): 37.47%±2.856; reduction of infarct volumes [2]: little reduction |
| CCN(CC)CCOC(=O)c1cc(-c2ccc(F)cc2F)ccc1O.Cl [Compound-10, 2-(diethylamino)ethyl 2′,4′-difluoro-4-hydroxyl-[1,1′-biphenyl]-3-carboxylate hydrochloride] | 0.49 | 1.03 | 2.12 | 4.39 | – |
| CC(=O)Oc1ccc(-c2ccc(F)cc2F)cc1C(=O)OCC1CCCN1.Cl (stereo not shown) [Compound-8, (pyrrolidin-2-yl)methyl 2′,4′-difluoro-4-acetoxy-[1,1′-biphenyl]-3-carboxylate hydrochloride] | 0.45 | 0.98 | 2.02 | 4.11 | infarct volume [8, 9]: 33.53%±1.986; neuroprotective effect on brain ischemic injury [8, 10]: good neuroprotective effect; neurological deficit scores [8, 11]: show differences significantly; infarct volume [8, 12]: 37.52%±2.789; body weight [8, 13]: increased; infarct volume [8, 14]: 35.02%±2.827 |
| (pyrrolidin-2-yl)methyl acetoxybenzoate hydrochloride [Compound-2] | – | – | – | – | mortalities ([6]; high dose 60 mg/kg topical bid): 0 of 25; infarct volume [6, 12]: 33.11%±2.212; neuroprotective effect on brain ischemic injury ([6]; low, middle and high dose groups compared to vehicle group): good neuroprotective effect; neurological deficit scores ([6]; low, middle and high dose groups vs vehicle group): show differences significantly; body weight [6, 13]: increased; infarct volume [6, 14]: 27.03%±2.123; mortalities ([6]; middle dose 30 mg/kg topical bid): 0 of 25 |
| O=C(O)c1cc(-c2ccc(F)cc2F)ccc1O [Compound-12, 2′,4′-difluoro-4-hydroxyl-[1,1′-biphenyl]-3-carboxylic acid, reference compound] | 0.000 | 0.001 | 0.001 | 0.003 | – |
| CC(=O)Oc1ccccc1C(=O)Oc1ccccc1C(=O)O [Compound-15, 2-(2-acetoxybenzoyl)oxybenzoic acid, reference compound] | 0.000 | 0.000 | 0.001 | 0.001 | infarct volume ([7]; 60 mg/kg oral bid 14 days): 39.25%±2.981; reduction of infarct volumes [7]: little reduction |
| Cl.O=C(OCC1CCCN1)c1cc(-c2ccc(F)cc2F)ccc1O (stereo not shown) [Compound-11, (pyrrolidin-2-yl)methyl 2′,4′-difluoro-4-hydroxyl-[1,1′-biphenyl]-3-carboxylate hydrochloride] | 0.43 | 0.99 | 2.01 | 4.05 | – |
| CC1=NN(c2ccccc2)C(=O)C1 [Edaravone, reference compound] | – | – | – | – | infarct volume ([8]; 3 mg/kg i.v. q.d. 14 days): 40.35%±2.078; reduction of infarct volumes [8]: little reduction; infarct volume ([2]; 3 mg/kg i.v. q.d. 14 days): 39.94%±2.256; reduction of infarct volumes [2]: little reduction; infarct volume ([7]; 3 mg/kg i.v. q.d. 14 days): 41.33%±2.792; reduction of infarct volumes [7]: little reduction; infarct volume ([4]; 3 mg/kg i.v. q.d. 14 days): 38.07%±2.031; reduction of infarct volumes [4]: little reduction; infarct volume ([6]; 3 mg/kg i.v. q.d. 14 days): 39.27%±2.513; reduction of infarct volumes [6]: little reduction |
